# Results published in PubChem BioAssay AID1963446 (Molecular Pharmacology Branch, DTP, NCI, 2024).
# System: 993429-296-R-J1-PDC complex spheroid growth, percent test/control
# Test: Anticancer human tumor 993429-296-R-J1-PDC patient-derived uterine sarcoma cell line growth inhibition [Asc]
# Details: for IC50: curve of first compound; for viability, T/C: stronger effect = lower value
# Method in brief: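 Tumor cells were grown as complex spheroids with human endothelial cells (HUVEC) and human mesenchymal stem cells as stroma. Agents were tested alone and in combination, in half-log steps down from the clinical Cmax, or from 10 microM where Cmax was unknown.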
# 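Note: spheroids exposed to compounds for seven days.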
smiles,measurement,setting,value
COc1c(OCCCN2CCOCC2)ccc2c3n(c(=NC(=O)c4cnc(N)nc4)nc12)CCN3 + CCN1C(C(=O)NC23CCC(C(=O)O)(CC2)CC3)C(c2cccc(Cl)c2F)C2(C(=O)Nc3cc(Cl)ccc32)C12CCCCC2,IC50,second compound 0.03 µM,24.5 nM
same,IC50,second compound 0.0949 µM,26.1 nM
same,IC50,second compound 0.3 µM,23.5 nM
same,IC50,second compound 0.949 µM,29.1 nM
same,IC50,second compound 3 µM,21.8 nM
same,"viability, T/C","second compound 0.03 µM, first compound 0.00316 µM",94.7%
same,"viability, T/C","second compound 0.03 µM, first compound 0.01 µM",84.8%
same,"viability, T/C","second compound 0.03 µM, first compound 0.0316 µM",40.2%
same,"viability, T/C","second compound 0.03 µM, first compound 0.1 µM",6.36%
same,"viability, T/C","second compound 0.03 µM, first compound 0.316 µM",4.17%
same,"viability, T/C","second compound 0.03 µM, first compound 1 µM",1.31%
same,"viability, T/C","second compound 0.0949 µM, first compound 0.00316 µM",82.9%
same,"viability, T/C","second compound 0.0949 µM, first compound 0.01 µM",86.2%
same,"viability, T/C","second compound 0.0949 µM, first compound 0.0316 µM",43%
same,"viability, T/C","second compound 0.0949 µM, first compound 0.1 µM",7.8%
same,"viability, T/C","second compound 0.0949 µM, first compound 0.316 µM",3.21%
same,"viability, T/C","second compound 0.0949 µM, first compound 1 µM",1.48%
same,"viability, T/C","second compound 0.3 µM, first compound 0.00316 µM",96.6%
same,"viability, T/C","second compound 0.3 µM, first compound 0.01 µM",73.5%
same,"viability, T/C","second compound 0.3 µM, first compound 0.0316 µM",44.7%
same,"viability, T/C","second compound 0.3 µM, first compound 0.1 µM",8.77%
same,"viability, T/C","second compound 0.3 µM, first compound 0.316 µM",3.89%
same,"viability, T/C","second compound 0.3 µM, first compound 1 µM",1.15%
same,"viability, T/C","second compound 0.949 µM, first compound 0.00316 µM",78.4%
same,"viability, T/C","second compound 0.949 µM, first compound 0.01 µM",89.8%
same,"viability, T/C","second compound 0.949 µM, first compound 0.0316 µM",47.4%
same,"viability, T/C","second compound 0.949 µM, first compound 0.1 µM",7.2%
same,"viability, T/C","second compound 0.949 µM, first compound 0.316 µM",4.24%
same,"viability, T/C","second compound 0.949 µM, first compound 1 µM",1.63%
same,"viability, T/C","second compound 3 µM, first compound 0.00316 µM",81.4%
same,"viability, T/C","second compound 3 µM, first compound 0.01 µM",70%
same,"viability, T/C","second compound 3 µM, first compound 0.0316 µM",41%
same,"viability, T/C","second compound 3 µM, first compound 0.1 µM",7.7%
same,"viability, T/C","second compound 3 µM, first compound 0.316 µM",3.98%
same,"viability, T/C","second compound 3 µM, first compound 1 µM",1.49%
Cc1nc(N2CCC3(CC2)COC(C)C3N)c(CO)nc1Sc1ccnc(N)c1Cl (stereo not given) + Cc1c(S(C)(=O)=O)c(-c2cc(F)cc(N3CCN(c4ccc(NS(=O)(=O)c5ccc(NC(CCN6CCC(C(=O)OCCCP(=O)(O)O)CC6)CSc6ccccc6)c(S(=O)(=O)C(F)(F)F)c5)cc4)CC3)c2)c(-c2ccc(Cl)cc2)n1C(C)C,IC50,second compound 0.1 µM,80.2 nM
same,IC50,second compound 0.316 µM,30.5 nM
same,IC50,second compound 1 µM,14.6 nM
same,IC50,second compound 3.16 µM,< 9.49 nM
same,IC50,second compound 10 µM,98.7 nM
same,"viability, T/C","second compound 0.1 µM, first compound 0.00949 µM",71.1%
same,"viability, T/C","second compound 0.1 µM, first compound 0.03 µM",64.3%
same,"viability, T/C","second compound 0.1 µM, first compound 0.0949 µM",47.2%
same,"viability, T/C","second compound 0.1 µM, first compound 0.3 µM",29.7%
same,"viability, T/C","second compound 0.1 µM, first compound 0.949 µM",18.8%
same,"viability, T/C","second compound 0.1 µM, first compound 3 µM",17.1%
same,"viability, T/C","second compound 0.316 µM, first compound 0.00949 µM",60.7%
same,"viability, T/C","second compound 0.316 µM, first compound 0.03 µM",49.3%
same,"viability, T/C","second compound 0.316 µM, first compound 0.0949 µM",35.7%
same,"viability, T/C","second compound 0.316 µM, first compound 0.3 µM",21.9%
same,"viability, T/C","second compound 0.316 µM, first compound 0.949 µM",14.1%
same,"viability, T/C","second compound 0.316 µM, first compound 3 µM",14.7%
same,"viability, T/C","second compound 1 µM, first compound 0.00949 µM",52.2%
same,"viability, T/C","second compound 1 µM, first compound 0.03 µM",46.3%
same,"viability, T/C","second compound 1 µM, first compound 0.0949 µM",27%
same,"viability, T/C","second compound 1 µM, first compound 0.3 µM",14.5%
same,"viability, T/C","second compound 1 µM, first compound 0.949 µM",14.4%
same,"viability, T/C","second compound 1 µM, first compound 3 µM",10.1%
same,"viability, T/C","second compound 3.16 µM, first compound 0.00949 µM",34.6%
same,"viability, T/C","second compound 3.16 µM, first compound 0.03 µM",29.8%
same,"viability, T/C","second compound 3.16 µM, first compound 0.0949 µM",33.6%
same,"viability, T/C","second compound 3.16 µM, first compound 0.3 µM",13.2%
same,"viability, T/C","second compound 3.16 µM, first compound 0.949 µM",10.8%
same,"viability, T/C","second compound 3.16 µM, first compound 3 µM",8.71%
same,"viability, T/C","second compound 10 µM, first compound 0.00949 µM",76.7%
same,"viability, T/C","second compound 10 µM, first compound 0.03 µM",67.5%
same,"viability, T/C","second compound 10 µM, first compound 0.0949 µM",51.1%
same,"viability, T/C","second compound 10 µM, first compound 0.3 µM",29.9%
same,"viability, T/C","second compound 10 µM, first compound 0.949 µM",14.4%
same,"viability, T/C","second compound 10 µM, first compound 3 µM",13.8%
